These results are taken from PMC11044151, “Development of Half-Sandwich Ru, Os, Rh, and Ir Complexes Bearing the Pyridine-2-ylmethanimine Bidentate Ligand Derived from 7-Chloroquinazolin-4(3H)-one with Enhanced Antiproliferative Activity” (ACS Omega, 2024).

For one data set, the system named is Colo205. The data set can be described thus: cells. As to conditions: for IC50: read-out: IC50 Colo205, exposure time 72 h, n = 3, 95% CI given; for activity factor IC50(1)/IC50(3a–4d), Colo205: vs corresponding amine (R)-1 or (S)-1, 72 h. A digest of the protocol: (§1)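 Human cancer lines seeded at 10^4 cells/well overnight, then treated 70 h with compounds in 0.1% DMSO in DMEM with 10% FBS at 37 °C, 5% CO2. Viability by neutral red uptake (1 mM, 2 h), absorbance 540 nm; IC50 and IC90 from five-parameter logistic fit.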

The subject of the next data set is HepG2. Kind of data set: cells. The settings on record: for IC50: read-out: IC50 HepG2, exposure time 72 h, n = 3, 95% CI given; for activity factor IC50(1)/IC50(3a–4d), HepG2: vs corresponding amine (R)-1 or (S)-1, 72 h. A digest of the protocol:
as §1

Another data set deals with MCF7. The data set can be described thus: cells. The settings on record: for IC50: read-out: IC50 MCF7, exposure time 72 h, n = 3, 95% CI given; for activity factor IC50(1)/IC50(3a–4d), MCF7: vs corresponding amine (R)-1 or (S)-1, 72 h. A digest of the protocol:
as §1

The subject of another data set is SW620. Kind of data set: Neutral red uptake antiproliferative assay, SW620. Format: cell-based, human. As to conditions: for IC50: exposure time 72 h, n = 3, 95% CI given; for activity factor IC50(1)/IC50(3a–4d), SW620: vs corresponding amine (R)-1 or (S)-1, 72 h. A digest of the protocol:
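Cells (10^4/well) are seeded, left overnight, then treated with test compounds for 70 h at 37 °C in DMEM with 10% fetal bovine serum. Neutral red uptake (1 mM, 2 h) is quantified at 540 nm after solubilisation, and IC50 is derived by five-parameter curve fitting.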

The next data set deals with SW620M. The data set can be described thus: Neutral red uptake antiproliferative assay, MDR line SW620M. Format: cell-based, human. As to conditions: for IC50: exposure time 72 h, n = 3, ABCC1-overexpressing MDR line; for activity factor IC50(1)/IC50(3a–4d), SW620M: vs corresponding amine (R)-1 or (S)-1, 72 h. The gist of the method: (§2)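 ABC-transporter-overexpressing SW620 derivatives were used: ABCB1 in SW620D, ABCC1 in SW620M, ABCG2 in SW620C and SW620Mito. Cytotoxicity is determined by neutral red uptake as % of control.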

For another data set, the system named is SW620V. Kind of data set: Neutral red uptake antiproliferative assay, MDR line SW620V. Format: cell-based, human. The settings on record: for IC50: exposure time 72 h, n = 3, ABCB1-overexpressing MDR line; for activity factor IC50(1)/IC50(3a–4d), SW620V: vs corresponding amine (R)-1 or (S)-1, 72 h.
For a further data set, the system named is SW620Mito. Kind of data set: Neutral red uptake antiproliferative assay, MDR line SW620Mito. Format: cell-based, human. As to conditions: for IC50: exposure time 72 h, n = 3, ABCG2-overexpressing MDR line; for activity factor IC50(1)/IC50(3a–4d), SW620Mito: vs corresponding amine (R)-1 or (S)-1, 72 h. A digest of the protocol:
as §2

For a further data set, the target named is T1, KSP (Homo sapiens, UniProt P52732).
T1 construct: purchased Cytoskeleton, Inc
T1 sequence (P52732 1-368 limits assumed): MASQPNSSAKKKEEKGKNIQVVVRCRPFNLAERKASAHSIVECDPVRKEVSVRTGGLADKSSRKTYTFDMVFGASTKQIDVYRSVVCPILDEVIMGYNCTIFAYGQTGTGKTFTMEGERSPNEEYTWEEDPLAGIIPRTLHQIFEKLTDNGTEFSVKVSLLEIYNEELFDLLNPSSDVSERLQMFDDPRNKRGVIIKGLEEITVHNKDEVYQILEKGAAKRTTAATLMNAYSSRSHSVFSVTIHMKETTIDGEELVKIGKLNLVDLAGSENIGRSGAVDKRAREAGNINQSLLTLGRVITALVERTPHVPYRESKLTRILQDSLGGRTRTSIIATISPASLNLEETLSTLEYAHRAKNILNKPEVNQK
Kind of data set: Kinesin ATPase inhibition (ATP hydrolysis) end-point assay. Format: biochemical. The settings on record: for KSP residual activity: 100 nM stated for ispinesib and (R)-1, concentration not restated for the complexes. Here is the method: The mechanism of the anticancer activity of ispinesib is related to the inhibition of the activity of the KSP. Thus, we studied the synthesized compounds’ ability to inhibit KSP activity using the adenosine 5′-triphosphate (ATP) hydrolysis assay.
The potential kinesin modulatory activity of tested compounds was performed using a Kinesin ATPase end-point biochem kit (Cytoskeleton, Inc.). […] The experiment was performed according to the manufacturer’s instructions. One μg of tested kinesin (KSP) was used per reaction. Phosphate release was measured at the absorbance 650 nm using an EnVision multilabel plate reader (PerkinElmer).

The structures appear in SMILES notation.

`CC(C)[C@@H](N=Cc1ccccn1)c1nc2cc(Cl)ccc2c(=O)n1Cc1ccccc1.Cc1ccc(C(C)C)cc1.F[P-](F)(F)(F)(F)F.[Cl-].[Ru+2]` [Compound 3a, [(cym)Ru((R)-2)Cl]PF6]: in the data set on Colo205, the IC50 (as a rule, the concentration at which inhibition is half-maximal) was 1260 nM and the “activity factor IC50(1)/IC50(3a–4d), Colo205” value is recorded as “(0.085)”. Further, in the data set on HepG2, the concentration for half-maximal inhibition (IC50) turned out to be 1570 nM and the “activity factor IC50(1)/IC50(3a–4d), HepG2” value was “(0.360)”. Further, in the data set on MCF7, the concentration for half-maximal inhibition (IC50) is 858 nM and the “activity factor IC50(1)/IC50(3a–4d), MCF7” value is listed as “(0.269)”. For the same compound, in the data set on SW620, the IC50 was 1220 nM and the “activity factor IC50(1)/IC50(3a–4d), SW620” value is listed as “(0.079)”. Also, in the data set on SW620M, half-maximal inhibition (IC50) required 3450 nM and the “activity factor IC50(1)/IC50(3a–4d), SW620M” value is “(0.070)”. In the data set on SW620V, the 50% inhibitory concentration (IC50) was determined as 4710 nM and the “activity factor IC50(1)/IC50(3a–4d), SW620V” value is “(0.044)”. In addition, in the data set with SW620Mito, half-maximal inhibition (IC50) was put at 4330 nM and the “activity factor IC50(1)/IC50(3a–4d), SW620Mito” value is “(0.060)”. Besides, the “KSP inhibitory activity (in words)” value on KSP (100, 300 and 1000 nM) is reported as “nonactive”.

For `CC(C)[C@@H](N=Cc1ccccn1)c1nc2cc(Cl)ccc2c(=O)n1Cc1ccccc1.Cc1c(C)c(C)[c-](C)c1C.F[P-](F)(F)(F)(F)F.[Cl-].[Rh+3]` [Compound 3c, [(Cp*)Rh((R)-2)Cl]PF6], in the data set on Colo205, the IC50 stood at 138 nM and the “activity factor IC50(1)/IC50(3a–4d), Colo205” value was “(0.775)”. Besides, in the data set on HepG2, the half-inhibitory concentration (IC50) was 689 nM and the “activity factor IC50(1)/IC50(3a–4d), HepG2” value is on record as “(0.821)”. Also, in the data set with MCF7, the IC50 turned out to be 357 nM and the “activity factor IC50(1)/IC50(3a–4d), MCF7” value is “(0.647)”. Besides, in the data set on SW620, the IC50 was determined as 152 nM and the “activity factor IC50(1)/IC50(3a–4d), SW620” value is on record as “(0.632)”. Further, in the data set with SW620M, the IC50 amounted to 1180 nM and the “activity factor IC50(1)/IC50(3a–4d), SW620M” value is listed as “(0.204)”. In the data set with SW620V, the IC50 amounted to 210 nM and the “activity factor IC50(1)/IC50(3a–4d), SW620V” value is reported as “(0.981)”. Besides, in the data set on SW620Mito, 524 nM corresponded to half-maximal inhibition (IC50) and the “activity factor IC50(1)/IC50(3a–4d), SW620Mito” value is recorded as “(0.498)”. The compound further had a KSP residual activity on KSP of 47.5%.

Regarding `CC(C)[C@@H](N=Cc1ccccn1)c1nc2cc(Cl)ccc2c(=O)n1Cc1ccccc1.Cc1ccc(C(C)C)cc1.F[P-](F)(F)(F)(F)F.[Cl-].[Os+2]` [Compound 3b, [(cym)Os((R)-2)Cl]PF6], in the data set with Colo205, the IC50 amounted to 448 nM and the “activity factor IC50(1)/IC50(3a–4d), Colo205” value is “(0.239)”. In the data set on HepG2, the “increased cytotoxicity vs corresponding amine 1, HepG2” value is given as 3 fold; the IC50 is 188 nM; the “activity factor IC50(1)/IC50(3a–4d), HepG2” value is “(3.01)”. In the data set with MCF7, the “increased cytotoxicity vs corresponding amine 1, MCF7” value stood at 3 fold; the half-inhibitory concentration (IC50) was 73 nM; the “activity factor IC50(1)/IC50(3a–4d), MCF7” value is on record as “(3.16)”. Also, in the data set with SW620, the IC50 was 556 nM and the “activity factor IC50(1)/IC50(3a–4d), SW620” value is given as “(0.173)”. In the data set on SW620M, the IC50 is 591 nM and the “activity factor IC50(1)/IC50(3a–4d), SW620M” value is given as “(0.408)”. In addition, in the data set on SW620V, the IC50 worked out at 1030 nM and the “activity factor IC50(1)/IC50(3a–4d), SW620V” value is listed as “(0.200)”. In the data set with SW620Mito, the concentration for half-maximal inhibition (IC50) came to 748 nM and the “activity factor IC50(1)/IC50(3a–4d), SW620Mito” value was “(0.349)”. The KSP residual activity at KSP stood at 71.8%.

As for `CC(C)[C@@H](N=Cc1ccccn1)c1nc2cc(Cl)ccc2c(=O)n1Cc1ccccc1.Cc1c(C)c(C)[c-](C)c1C.F[P-](F)(F)(F)(F)F.[Cl-].[Ir+3]` [Compound 3d, [(Cp*)Ir((R)-2)Cl]PF6], in the data set on Colo205, the half-maximal inhibitory concentration (IC50) was 524 nM and the “activity factor IC50(1)/IC50(3a–4d), Colo205” value is listed as “(0.204)”. In addition, in the data set on HepG2, the concentration for half-maximal inhibition (IC50) turned out to be 454 nM and the “activity factor IC50(1)/IC50(3a–4d), HepG2” value is “(1.25)”. Also, in the data set on MCF7, the IC50 stood at 653 nM and the “activity factor IC50(1)/IC50(3a–4d), MCF7” value was “(0.354)”. In the data set with SW620, 198 nM corresponded to half-maximal inhibition (IC50) and the “activity factor IC50(1)/IC50(3a–4d), SW620” value is given as “(0.485)”. Besides, in the data set on SW620M, the half-inhibitory concentration (IC50) came to 247 nM and the “activity factor IC50(1)/IC50(3a–4d), SW620M” value is “(0.976)”. Also, in the data set on SW620V, 267 nM corresponded to half-maximal inhibition (IC50) and the “activity factor IC50(1)/IC50(3a–4d), SW620V” value is reported as “(0.771)”. In addition, in the data set on SW620Mito, inhibition was half-maximal at 268 nM (IC50) and the “activity factor IC50(1)/IC50(3a–4d), SW620Mito” value is reported as “(0.974)”. Also, the KSP residual activity on KSP came to 64.0%.
